Consider three compounds from PMC3423592 (ACS chemical biology, 2012).

Test [1] concerns 4T1 cells. Put plainly: 4T1 cell growth in 3D culture. It counts as cell-based. As to conditions: 3 μM GNF-2 added to 10 μM compound 4.
The target of test [2] is c-Src (Gallus gallus, UniProt P00523). Put plainly: continuous fluorimetric biochemical inhibition assay, c-Src. Details: species or system chicken. Conditions: read-out: Ki, c-Src; ATP = 100 μM, substrate peptide = 45 μM.
The subject of test [3] is HT-29. Briefly: cell growth inhibition assay. It counts as cell-based. Conditions: read-out: GI50, HT-29; 72 h, WST-1.
The test system of test [4] is SK-BR-3. Briefly: cell growth inhibition assay. Format: cell-based. Conditions: read-out: GI50, SK-BR-3; 72 h, WST-1.
The subject of test [5] is MCF7. Briefly: cell growth inhibition assay. Format: cell-based. Conditions: read-out: GI50, MCF7; 72 h, WST-1. On the technique in general: Tetrazolium dyes change colour on reduction, which living cells bring about.
Test [6] concerns MDA-MB-453. Put plainly: cell growth inhibition assay. It counts as cell-based. Conditions: read-out: GI50, MDA-MB-453; 72 h, WST-1.
The test system of test [7] is NIH-3T3. Put plainly: cell growth inhibition assay. It counts as cell-based. Conditions: read-out: GI50, NIH-3T3; 72 h, WST-1; non-cancer cell line.
Test [8] deals with ErbB2 (Homo sapiens, UniProt P04626). Put plainly: KINOMEscan profiling, ErbB2. Conditions: 10 μM.
The target of test [9] is ErbB3 (Homo sapiens, UniProt P21860). Put plainly: KINOMEscan profiling, ErbB3. As to conditions: 10 μM.
Test [10] relates to diverse panel of 200 kinases. Put plainly: KINOMEscan ATP-site competition binding, diverse kinase panel profiling. Conditions: 10 μM.
The test system of test [11] is diverse panel of 200 kinases. As to conditions: in this panel; cited from earlier work.

Bounds are passed on as bounds.

Chain of ErbB3 (P21860 20-1342): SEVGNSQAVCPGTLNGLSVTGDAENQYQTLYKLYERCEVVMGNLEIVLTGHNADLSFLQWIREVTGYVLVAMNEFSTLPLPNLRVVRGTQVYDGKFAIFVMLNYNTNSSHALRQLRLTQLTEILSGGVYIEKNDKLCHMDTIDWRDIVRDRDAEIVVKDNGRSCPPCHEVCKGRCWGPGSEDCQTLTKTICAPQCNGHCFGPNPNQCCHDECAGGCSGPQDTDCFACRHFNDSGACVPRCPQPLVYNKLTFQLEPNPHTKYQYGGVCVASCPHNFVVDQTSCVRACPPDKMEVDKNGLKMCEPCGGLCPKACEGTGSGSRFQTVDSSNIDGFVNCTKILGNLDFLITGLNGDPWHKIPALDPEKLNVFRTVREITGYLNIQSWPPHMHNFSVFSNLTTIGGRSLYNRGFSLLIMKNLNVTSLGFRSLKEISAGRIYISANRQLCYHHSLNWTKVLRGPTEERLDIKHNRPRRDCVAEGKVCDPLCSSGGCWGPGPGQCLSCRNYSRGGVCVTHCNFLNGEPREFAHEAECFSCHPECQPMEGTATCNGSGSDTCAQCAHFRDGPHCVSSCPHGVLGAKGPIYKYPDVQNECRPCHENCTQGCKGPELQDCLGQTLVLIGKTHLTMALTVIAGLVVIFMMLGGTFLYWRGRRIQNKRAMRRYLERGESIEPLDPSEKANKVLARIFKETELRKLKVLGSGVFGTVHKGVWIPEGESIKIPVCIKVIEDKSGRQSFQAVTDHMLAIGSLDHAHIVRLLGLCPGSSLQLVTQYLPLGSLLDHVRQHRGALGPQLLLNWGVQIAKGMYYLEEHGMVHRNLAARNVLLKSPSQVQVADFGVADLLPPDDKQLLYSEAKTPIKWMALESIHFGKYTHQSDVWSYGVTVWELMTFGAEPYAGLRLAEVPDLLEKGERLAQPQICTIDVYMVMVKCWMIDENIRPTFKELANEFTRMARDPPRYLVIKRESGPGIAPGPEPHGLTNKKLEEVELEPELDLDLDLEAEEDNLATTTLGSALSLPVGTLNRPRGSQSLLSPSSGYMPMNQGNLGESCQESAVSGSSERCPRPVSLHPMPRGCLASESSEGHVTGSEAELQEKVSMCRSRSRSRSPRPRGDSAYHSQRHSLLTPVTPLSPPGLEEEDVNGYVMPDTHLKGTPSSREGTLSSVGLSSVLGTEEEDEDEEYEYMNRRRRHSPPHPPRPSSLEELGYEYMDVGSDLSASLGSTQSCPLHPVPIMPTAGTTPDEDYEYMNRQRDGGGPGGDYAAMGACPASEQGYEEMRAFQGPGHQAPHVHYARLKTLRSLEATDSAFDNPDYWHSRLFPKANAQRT
Chain of ErbB2 (P04626 23-1255): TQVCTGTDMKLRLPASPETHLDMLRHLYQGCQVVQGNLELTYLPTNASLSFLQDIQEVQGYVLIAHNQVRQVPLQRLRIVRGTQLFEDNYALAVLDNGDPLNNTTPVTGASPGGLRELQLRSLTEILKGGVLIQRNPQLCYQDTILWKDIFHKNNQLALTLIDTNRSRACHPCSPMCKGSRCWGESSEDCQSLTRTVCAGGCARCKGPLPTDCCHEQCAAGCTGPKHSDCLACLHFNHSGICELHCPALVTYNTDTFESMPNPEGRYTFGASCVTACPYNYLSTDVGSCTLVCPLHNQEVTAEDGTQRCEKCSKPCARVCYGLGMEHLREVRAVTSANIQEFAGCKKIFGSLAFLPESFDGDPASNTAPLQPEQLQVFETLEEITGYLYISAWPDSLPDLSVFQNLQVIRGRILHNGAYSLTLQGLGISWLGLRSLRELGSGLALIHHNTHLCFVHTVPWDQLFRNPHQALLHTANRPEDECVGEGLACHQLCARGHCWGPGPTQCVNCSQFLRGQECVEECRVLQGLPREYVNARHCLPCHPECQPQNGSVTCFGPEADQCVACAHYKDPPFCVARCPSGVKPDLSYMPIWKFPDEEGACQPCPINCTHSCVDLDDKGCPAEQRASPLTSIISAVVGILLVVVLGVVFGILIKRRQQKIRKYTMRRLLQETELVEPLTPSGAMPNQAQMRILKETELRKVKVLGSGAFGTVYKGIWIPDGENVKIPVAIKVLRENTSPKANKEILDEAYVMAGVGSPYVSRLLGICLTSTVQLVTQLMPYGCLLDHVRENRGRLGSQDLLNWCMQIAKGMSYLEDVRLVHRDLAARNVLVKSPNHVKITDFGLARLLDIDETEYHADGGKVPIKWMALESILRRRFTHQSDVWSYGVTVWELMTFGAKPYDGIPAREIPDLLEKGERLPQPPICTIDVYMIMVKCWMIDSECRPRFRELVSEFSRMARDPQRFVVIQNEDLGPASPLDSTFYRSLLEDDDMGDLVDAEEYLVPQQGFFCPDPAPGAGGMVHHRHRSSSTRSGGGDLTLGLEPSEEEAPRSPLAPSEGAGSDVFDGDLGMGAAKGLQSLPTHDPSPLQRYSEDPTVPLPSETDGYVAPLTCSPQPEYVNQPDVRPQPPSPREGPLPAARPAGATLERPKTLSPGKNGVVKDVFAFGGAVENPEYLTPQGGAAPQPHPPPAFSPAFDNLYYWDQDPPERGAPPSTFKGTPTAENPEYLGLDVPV

`NC(=O)c1cccc(-c2cc(Nc3ccc(OC(F)(F)F)cc3)ncn2)c1` [GNF-2]: the “4T1 cell proliferation in 3D culture, effect of co-dosing” value in test [1] was “mitigates effects of compound 4”.
The Ki is the dissociation constant of the complex between target and ligand, obtained from inhibition or displacement. The GI50 is the concentration that inhibits growth by half. As to `CC(C)(C)n1nc(-c2ccc(Cl)cc2)c2c(N)ncnc21` [PP2], in test [2], the Ki came to 0.033 µM. Besides, the GI50 in test [3] is 48 µM; in test [4] it was more than 100 µM; in [5] it was more than 100 µM; in test [6], 14 µM; in test [7] it was 17 µM. In [8], the “inhibition of ErbB2 in profiling” value is “significantly inhibits”. In [9], the “inhibition of ErbB3 in profiling” value was “significantly inhibits”. Further, the “number of kinases with >95% displacement from an immobilized ligand” value in [10] was determined as 56. For the same compound, in test [10], the “number of kinases with >99% displacement from an immobilized ligand” value amounted to 24.
For `Cc1nc(Nc2ncc(C(=O)Nc3c(C)cccc3Cl)s2)cc(N2CCN(CCO)CC2)n1` [dasatinib], the S35 selectivity score in [11] is on record as 0.27.
